In ChEMBL document CHEMBL1150983, “Synthesis of novel taxol analogs and evaluation of their biological activities” (1997):

What follows are compounds tested on J774.2 (assay: Cytotoxicity tested against J774.2 cells.). Details: Mus musculus, read-out: ED50 (the source's name).
Assay type: functional

Going from `CC(=O)O[C@@]12CO[C@@H]1C[C@@H](O)[C@@]1(C)C(=O)c3[se]cc4c3[C@@](C(C)(C)O)(C[C@@H]4OC(=O)[C@H](O)[C@@H](NC(=O)c3ccccc3)c3ccccc3)[C@@H](OC(=O)c3ccccc3)[C@H]21` to `CC(=O)O[C@H]1C(=O)[C@@]2(C)[C@H]([C@H](OC(=O)c3ccccc3)[C@]3(O)C[C@H](OC(=O)[C@H](O)[C@@H](NC(=O)c4ccccc4)c4ccccc4)C(C)=C1C3(C)C)[C@]1(OC(C)=O)CO[C@@H]1C[C@@H]2O` [PACLITAXEL], the EC50 falls from 900 nM to 16 nM (56-fold).

Work on `CC(=O)O[C@H]1C(=O)[C@@]2(C)[C@H]([C@H](OC(=O)c3ccccc3)[C@]3(O)C[C@H](OC(=O)[C@H](O)[C@@H](NC(=O)c4ccccc4)c4ccccc4)C(C)=C1C3(C)C)[C@]1(OC(C)=O)CO[C@@H]1[C@@H]2O` yielded an EC50 of 250 nM.
